Test results as given in paper PMC9968691, “Perfluoroalkyl substances (PFASs) are substrates of the renal human organic anion transporter 4 (OAT4)” (Archives of Toxicology, 2022).
“Also recorded” adds a separate entry of the source. Marks after values point to notes of the source that are not given here.

Experiments:
human OAT4 [1] = molecular target: T1, human OAT4 (Homo sapiens, UniProt Q9NSA0); test: Screening of cellular PFAS accumulation in OAT4-transfected vs control-transfected HEK293 cells (PFAS mixture); type: cell-based; details: for Transport by OAT4 (cellular PFAS level in OAT4-transfected vs control-transfected cells; substantial = at least twofold higher): PFAS mixture, each 1 µM, 10 min; for OAT4 substrate: yes/no as identified in vitro in this study
T1 construct: expressed in transfected cells; host or cells: HEK293 cells transduced with recombinant baculovirus (CMV promoter)
T1 sequence (Q9NSA0 1-550): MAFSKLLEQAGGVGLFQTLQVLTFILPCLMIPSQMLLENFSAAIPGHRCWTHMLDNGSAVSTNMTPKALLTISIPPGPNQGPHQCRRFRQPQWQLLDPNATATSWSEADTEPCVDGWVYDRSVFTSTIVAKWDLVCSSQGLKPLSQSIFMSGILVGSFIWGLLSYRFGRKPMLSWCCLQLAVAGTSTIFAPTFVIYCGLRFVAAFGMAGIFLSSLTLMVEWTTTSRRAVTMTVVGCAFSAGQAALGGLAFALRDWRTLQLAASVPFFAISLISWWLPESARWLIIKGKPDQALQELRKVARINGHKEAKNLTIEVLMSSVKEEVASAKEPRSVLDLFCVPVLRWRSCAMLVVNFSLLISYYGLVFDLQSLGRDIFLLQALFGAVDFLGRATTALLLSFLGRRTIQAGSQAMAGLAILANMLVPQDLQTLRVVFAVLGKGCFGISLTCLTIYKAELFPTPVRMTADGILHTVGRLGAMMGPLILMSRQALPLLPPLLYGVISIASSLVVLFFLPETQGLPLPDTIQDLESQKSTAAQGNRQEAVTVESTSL
Description: (§1) The recombinant baculoviruses that contain the cDNA of human transporters OAT4 and URAT1 downstream of a cytomegalovirus (CMV) promotor were generated as previously described (Smeets et al. [2020]). As a negative control, baculovirus containing the gene for enhanced yellow fluorescence protein (eYFP) was produced similarly. Moreover, transduction of HEK293 cells and uptake assays were essentially performed as previously described (Smeets et al. [2020]). The culture medium was removed and cells were washed with buffer (HBSS plus 10 mM HEPES, pH 7.4). Uptake was initiated by replacing this solution with 150 µL of fresh transport buffer (HBSS (Life Technologies Invitrogen (Carlsbad, CA, USA))-HEPES (Sigma-Aldrich), pH 7.4) supplemented with the PFASs for 10 min. To terminate the reaction, transport buffer was replaced with 400 µL ice-cold HBSS-HEPES buffer containing 0.5% BSA (m/v; Roche Diagnostics GmbH (Mannheim, Germany)), after which the cells were washed twice with ice-cold HBSS-HEPES. Cellular PFAS concentrations were determined based on the method described by Rosenmai et al. ([2018]). Briefly, cells were solubilised in 250 µL lysis buffer and cell lysates were stored in Eppendorf tubes at − 80 °C and defrozen when needed for LC–MS analysis and for quantification of the protein concentration.
(§2) To 50 μL cell lysate, 850 μL methanol (Actu-All Chemicals, Oss, The Netherlands) containing internal standards (^13C4-PFHpA, ^13C4-PFOA, ^13C5-PFNA, ^13C2-PFDA, ^13C3-PFBS, ^18O2-PFHxS and ^13C4-PFOS (Wellington Laboratories, Canada) was added. These dilutions were vortexed well before centrifugation at maximum speed for 10 min at 4 °C. PFAS concentrations in the supernatant were determined using LC–MS/MS analysis. If required, samples were further diluted with methanol and containing internal standards. LC–MS/MS analysis was based on a Shimadzu UHPLC system containing: 2 pumps (LC 20AD xr); column oven (Shimadzu CTO-20AC); pump switch (Shimadzu FCV-11AL); degasser (Shimadzu DGU-20A3); and sample tray holder (Shimadzu SIL-20 AC XR model) (Shimadzu Corporation, Kyoto, Japan). An Acquity BEH-C18 analytical column (50 × 2.1 mm i.d., 1.7 μm, Waters, Milford, MA, USA) was used to separate the PFASs at a column temperature of 35 °C. In addition, a symmetry C18 analytical column (50 × 2.1 mm i.d., 5 µm, Waters, Milford, MA, USA) was used as a guard column, placed between the pump and the injector valve to isolate and delay interferences out of the LC system. The mobile phase consisted of 2 mM ammonium acetate (Merck Millipore, Darmstadt, Germany) in Milli-Q water (prepared using a Milli-Q system with a resistivity of at least 18.2 MΩ cm^−1 (Merck Millipore)) (mobile phase A) and Acetonitrile ULC/MS grade (Actu-All Chemicals, Oss, The Netherlands) (mobile phase B). The injection volume used was 20 μL. The chromatographic gradient was operated at a flow rate of 0.3 mL min^−1 starting from 25% mobile phase B in the first 0.1 min, a linear increase to 100% B in 6 min with a final hold of 2.5 min. The gradient was returned to 25% B within 0.1 min for 3.9 min to equilibrate before the next injection, resulting in a total run of 12.5 min.
(§3) Cellular PFAS content was normalised to cellular protein. To that end, from each cell lysate, 25 µL was used to determine the protein concentration (technical duplicate) using the Pierce BCA Protein Assay Kit (Thermo Scientific, Waltham, MA). First, samples were diluted two times with lysis buffer directly in a 96-wells plate (PS, F-bottom, clear; Greiner Bio-One, Alphen aan de Rijn, The Netherlands), and in each plate, a BSA standard curve (0.05–2 mg mL^−1 in lysis buffer) was included allowing protein quantification of the samples. The manufacturer’s protocol was followed for the subsequent steps and absorbance was measured using a microplate reader (Synergy™ HT BioTek, Winooski, VT) at 562 nm. […]

human URAT1 = molecular target: T2, human URAT1 (Homo sapiens, UniProt Q96S37); test: Screening of cellular PFAS accumulation in URAT1-transfected vs control-transfected HEK293 cells (PFAS mixture); type: cell-based; details: yes/no as identified in vitro in this study
T2 construct: expressed in transfected cells; host or cells: HEK293 cells transduced with recombinant baculovirus (CMV promoter)
T2 sequence (Q96S37 1-553): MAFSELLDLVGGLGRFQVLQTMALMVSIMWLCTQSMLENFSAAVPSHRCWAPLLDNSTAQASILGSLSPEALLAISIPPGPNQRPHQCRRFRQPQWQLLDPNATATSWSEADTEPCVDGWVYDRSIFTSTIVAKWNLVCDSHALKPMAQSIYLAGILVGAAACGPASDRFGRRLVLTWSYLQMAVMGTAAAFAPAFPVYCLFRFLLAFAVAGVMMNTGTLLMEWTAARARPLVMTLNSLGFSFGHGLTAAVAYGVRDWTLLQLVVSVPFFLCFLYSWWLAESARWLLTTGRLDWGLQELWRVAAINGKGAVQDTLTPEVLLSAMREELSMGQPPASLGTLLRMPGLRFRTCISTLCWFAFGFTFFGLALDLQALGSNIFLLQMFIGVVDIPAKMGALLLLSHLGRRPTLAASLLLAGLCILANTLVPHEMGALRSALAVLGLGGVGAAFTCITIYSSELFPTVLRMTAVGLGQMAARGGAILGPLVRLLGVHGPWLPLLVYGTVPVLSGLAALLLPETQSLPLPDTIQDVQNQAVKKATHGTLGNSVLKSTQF
Description: as §1, §2, §3

OAT4 [2] = tested on: OAT4; set-up: method as in Yang et al. 2010; details: OAT4-expressing CHO cells; ref Yang et al. 2010; cited from earlier work
URAT1 [3] = tested on: URAT1; set-up: method as in Yang et al. 2010; details: URAT1-expressing HEK293 cells; ref Yang et al. 2010; cited from earlier work
albumin = details: ref Allendorf et al. (2019); cited from earlier work
[4] = (average) serum half-life; ref Xu et al. (2020) for PFHpA; Olsen et al. (2007), Li et al. (2018), Xu et al. (2020) for PFOA, PFHxS, PFOS; Olsen et al. (2009) for PFBS; cited from earlier work
human OAT4 [5] = molecular target: T1, human OAT4; test: OAT4-mediated cellular uptake kinetics (Michaelis–Menten) in OAT4-transfected vs control-transfected HEK293 cells; type: cell-based; details: OAT4-transfected minus control-transfected HEK293 cells, 1 min exposure, 1-300 µM; best-fit value (standard error)
Description: OAT4- and control-transfected cells were exposed for 1 min to a range of PFAS concentrations (1, 3, 10, 30, 100 and 300 µM) and cellular amounts were determined.
OAT4-transfected cells and control-transfected cells were exposed for 1 min to a range of PFAS concentrations and cellular amounts were determined. Amounts obtained in control-transfected cells were subtracted from amounts obtained in OAT4-transfected cells to obtain OAT4-mediated cellular uptake rates.

OAT4 [6] = tested on: OAT4; set-up: method as in Kimura et al. 2002; Morrissey et al. 2012; details: probe substrate; ref Kimura et al. 2002; Morrissey et al. 2012; cited from earlier work
URAT1 [7] = tested on: URAT1; set-up: method as in Iwanaga et al. 2005; Morrissey et al. 2012; details: probe substrate; ref Iwanaga et al. 2005; Morrissey et al. 2012; cited from earlier work

| Structure (SMILES) | Transport by OAT4 (cellular PFAS level in OAT4-transfected vs control-transfected cells; substantial = at least twofold higher) (human OAT4 [1]) | OAT4 substrate (human OAT4 [1]) | URAT1 substrate (human URAT1) | Km (OAT4 [2]) | Vmax (OAT4 [2]) | Km (URAT1 [3]) | Vmax (URAT1 [3]) | Reported albumin/water partition coefficients (albumin) | Reported half-life in humans [4] | Apparent Vmax (human OAT4 [5]) | OAT4 substrate (OAT4 [6]) | URAT1 substrate (URAT1 [7]) |
| --- | --- | --- | --- | --- | --- | --- | --- | --- | --- | --- | --- | --- |
| O=C(O)C(F)(F)C(F)(F)C(F)(F)C(F)(F)C(F)(F)C(F)(F)C(F)(F)F [PFOA, perfluorooctanoic acid] | substantial transport; also recorded: more than twofold increase | Yes | No | 310 µM | 37 nmol min^−1 mg protein^−1 | 64 µM | 0.32 nmol min^−1 mg protein^−1 | 4.2 L/kg | 1.8–3.8^c years | – | – | – |
| O=S(=O)(O)C(F)(F)C(F)(F)C(F)(F)C(F)(F)C(F)(F)C(F)(F)C(F)(F)C(F)(F)F [PFOS, perfluorooctane sulfonate] | substantial transport; also recorded: more than twofold increase | Yes | No | – | – | – | – | 4.7 L/kg | 1.8–5.4^c years | 2.2 nmol min^−1 mg protein^−1 | – | – |
| CCCCC[C@H](O)/C=C/[C@H]1[C@H](O)CC(=O)[C@@H]1C/C=C\CCCC(=O)O [Prostaglandin E2, prostaglandin E2] | – | – | – | – | – | – | – | – | – | – | Yes | – |
| O=c1[nH]c(=O)c2[nH]c(=O)[nH]c2[nH]1 [Uric acid, uric acid] | – | – | – | – | – | – | – | – | – | – | – | Yes |
